Patent publication US10442815B2, “Tricyclic heterocyclic compounds as phosphoinositide 3-kinase inhibitors” (Karus Therapeutics Limited, priority 2015, dated 2019)

Assays:
Assay in all cases: Ki determination, non-radiometric ADP-Glo assay (Proqinase GmbH)
Type in all cases: biochemical
PI3K p110γ = target: T1, PI3K p110γ (Homo sapiens, UniProt P48736)
T1 construct: assay run at Proqinase GmbH
From the text: (§1) Biochemical activity against class I PI3K isoforms was confirmed by either Ki determination using the non-radiometric ADP-Glo™ assay (Promega, Madison, Wis., USA) at Proqinase GmbH, or IC50 determination using the HTRF biochemical assay at Reaction Biology Corp.

PI3K p110δ = target: T2, PI3K p110δ (Homo sapiens, UniProt O00329)
T2 construct: assay run at Proqinase GmbH
From the text: as §1

PI3K p110α = target: T3, PI3K p110α (Homo sapiens, UniProt P42336)
T3 construct: assay run at Proqinase GmbH
From the text: as §1

PI3K p110β = target: T4, PI3K p110β (Homo sapiens, UniProt P42338)
T4 construct: assay run at Proqinase GmbH
From the text: as §1

T4 sequence (P42338 whole entry): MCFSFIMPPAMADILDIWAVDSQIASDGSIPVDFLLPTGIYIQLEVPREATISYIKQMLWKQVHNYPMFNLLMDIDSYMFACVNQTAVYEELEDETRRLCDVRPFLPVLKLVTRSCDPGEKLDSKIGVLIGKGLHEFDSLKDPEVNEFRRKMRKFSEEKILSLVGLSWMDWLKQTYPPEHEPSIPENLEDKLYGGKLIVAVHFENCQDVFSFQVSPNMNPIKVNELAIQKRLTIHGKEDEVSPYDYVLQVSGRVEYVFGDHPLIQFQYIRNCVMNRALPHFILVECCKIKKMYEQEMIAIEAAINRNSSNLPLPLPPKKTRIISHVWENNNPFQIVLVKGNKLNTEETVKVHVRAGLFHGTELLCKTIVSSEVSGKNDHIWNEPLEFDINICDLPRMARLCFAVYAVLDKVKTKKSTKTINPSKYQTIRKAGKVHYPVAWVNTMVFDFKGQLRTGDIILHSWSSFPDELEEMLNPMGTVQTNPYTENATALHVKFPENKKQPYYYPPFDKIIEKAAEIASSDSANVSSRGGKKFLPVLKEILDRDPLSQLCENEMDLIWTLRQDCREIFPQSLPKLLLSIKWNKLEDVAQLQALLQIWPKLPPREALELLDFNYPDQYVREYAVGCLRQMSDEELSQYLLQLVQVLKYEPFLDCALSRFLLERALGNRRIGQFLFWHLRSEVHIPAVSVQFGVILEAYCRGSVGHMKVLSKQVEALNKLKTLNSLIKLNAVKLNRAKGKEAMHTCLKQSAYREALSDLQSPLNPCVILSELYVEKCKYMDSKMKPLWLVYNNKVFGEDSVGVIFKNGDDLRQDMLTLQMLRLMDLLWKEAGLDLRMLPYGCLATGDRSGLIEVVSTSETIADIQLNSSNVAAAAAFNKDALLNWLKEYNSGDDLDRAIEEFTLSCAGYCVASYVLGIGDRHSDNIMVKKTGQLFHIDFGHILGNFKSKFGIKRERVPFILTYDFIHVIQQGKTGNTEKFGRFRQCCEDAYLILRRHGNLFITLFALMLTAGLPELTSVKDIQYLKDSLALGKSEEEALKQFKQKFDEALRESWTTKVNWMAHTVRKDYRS
T4 sequence (P27986 whole entry partner): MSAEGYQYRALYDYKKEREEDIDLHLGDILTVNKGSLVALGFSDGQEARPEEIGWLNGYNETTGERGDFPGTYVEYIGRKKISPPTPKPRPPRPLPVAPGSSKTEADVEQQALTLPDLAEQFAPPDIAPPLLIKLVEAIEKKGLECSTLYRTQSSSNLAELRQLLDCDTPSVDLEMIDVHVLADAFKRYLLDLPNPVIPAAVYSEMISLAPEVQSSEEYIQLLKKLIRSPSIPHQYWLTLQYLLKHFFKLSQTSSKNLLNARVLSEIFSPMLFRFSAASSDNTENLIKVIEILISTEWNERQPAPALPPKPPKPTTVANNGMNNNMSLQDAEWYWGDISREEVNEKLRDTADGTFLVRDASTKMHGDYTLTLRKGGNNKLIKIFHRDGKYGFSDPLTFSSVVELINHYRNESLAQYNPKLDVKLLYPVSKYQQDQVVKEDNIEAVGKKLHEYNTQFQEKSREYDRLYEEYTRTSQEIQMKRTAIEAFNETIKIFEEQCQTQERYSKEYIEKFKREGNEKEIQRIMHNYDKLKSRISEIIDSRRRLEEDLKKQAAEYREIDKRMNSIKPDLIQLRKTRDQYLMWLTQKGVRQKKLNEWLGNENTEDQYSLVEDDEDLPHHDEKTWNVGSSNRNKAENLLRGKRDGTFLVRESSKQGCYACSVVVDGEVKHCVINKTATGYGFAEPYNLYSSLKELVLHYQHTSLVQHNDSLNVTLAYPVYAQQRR
T1 sequence (P48736 whole entry): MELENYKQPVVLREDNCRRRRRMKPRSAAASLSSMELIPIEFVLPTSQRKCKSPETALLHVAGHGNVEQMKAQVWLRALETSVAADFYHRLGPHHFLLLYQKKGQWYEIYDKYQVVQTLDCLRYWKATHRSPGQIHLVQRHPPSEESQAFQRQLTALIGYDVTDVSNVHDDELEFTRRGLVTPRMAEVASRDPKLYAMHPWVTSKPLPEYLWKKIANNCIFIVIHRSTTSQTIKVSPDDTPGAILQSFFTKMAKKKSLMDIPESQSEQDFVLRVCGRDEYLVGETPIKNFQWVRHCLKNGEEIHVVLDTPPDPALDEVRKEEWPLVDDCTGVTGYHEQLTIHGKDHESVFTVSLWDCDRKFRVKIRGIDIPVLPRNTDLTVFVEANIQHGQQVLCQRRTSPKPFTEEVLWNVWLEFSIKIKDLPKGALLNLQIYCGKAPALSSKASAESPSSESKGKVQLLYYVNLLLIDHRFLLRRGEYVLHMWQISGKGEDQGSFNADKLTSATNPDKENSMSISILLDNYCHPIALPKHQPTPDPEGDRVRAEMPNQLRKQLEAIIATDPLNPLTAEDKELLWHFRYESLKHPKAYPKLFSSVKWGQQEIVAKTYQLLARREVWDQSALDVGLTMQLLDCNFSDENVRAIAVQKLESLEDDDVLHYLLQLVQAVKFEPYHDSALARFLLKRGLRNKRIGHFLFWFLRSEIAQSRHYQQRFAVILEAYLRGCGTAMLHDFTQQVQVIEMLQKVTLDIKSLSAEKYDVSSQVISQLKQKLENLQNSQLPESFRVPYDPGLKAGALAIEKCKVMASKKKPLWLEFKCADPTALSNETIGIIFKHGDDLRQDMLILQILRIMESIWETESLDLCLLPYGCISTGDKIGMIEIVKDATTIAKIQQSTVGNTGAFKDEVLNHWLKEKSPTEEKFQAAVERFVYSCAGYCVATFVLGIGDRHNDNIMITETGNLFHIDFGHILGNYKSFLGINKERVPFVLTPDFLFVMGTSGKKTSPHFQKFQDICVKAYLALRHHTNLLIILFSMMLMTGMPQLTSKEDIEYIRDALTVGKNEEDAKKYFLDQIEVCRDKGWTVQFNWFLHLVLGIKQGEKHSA
T3 sequence (P42336 whole entry): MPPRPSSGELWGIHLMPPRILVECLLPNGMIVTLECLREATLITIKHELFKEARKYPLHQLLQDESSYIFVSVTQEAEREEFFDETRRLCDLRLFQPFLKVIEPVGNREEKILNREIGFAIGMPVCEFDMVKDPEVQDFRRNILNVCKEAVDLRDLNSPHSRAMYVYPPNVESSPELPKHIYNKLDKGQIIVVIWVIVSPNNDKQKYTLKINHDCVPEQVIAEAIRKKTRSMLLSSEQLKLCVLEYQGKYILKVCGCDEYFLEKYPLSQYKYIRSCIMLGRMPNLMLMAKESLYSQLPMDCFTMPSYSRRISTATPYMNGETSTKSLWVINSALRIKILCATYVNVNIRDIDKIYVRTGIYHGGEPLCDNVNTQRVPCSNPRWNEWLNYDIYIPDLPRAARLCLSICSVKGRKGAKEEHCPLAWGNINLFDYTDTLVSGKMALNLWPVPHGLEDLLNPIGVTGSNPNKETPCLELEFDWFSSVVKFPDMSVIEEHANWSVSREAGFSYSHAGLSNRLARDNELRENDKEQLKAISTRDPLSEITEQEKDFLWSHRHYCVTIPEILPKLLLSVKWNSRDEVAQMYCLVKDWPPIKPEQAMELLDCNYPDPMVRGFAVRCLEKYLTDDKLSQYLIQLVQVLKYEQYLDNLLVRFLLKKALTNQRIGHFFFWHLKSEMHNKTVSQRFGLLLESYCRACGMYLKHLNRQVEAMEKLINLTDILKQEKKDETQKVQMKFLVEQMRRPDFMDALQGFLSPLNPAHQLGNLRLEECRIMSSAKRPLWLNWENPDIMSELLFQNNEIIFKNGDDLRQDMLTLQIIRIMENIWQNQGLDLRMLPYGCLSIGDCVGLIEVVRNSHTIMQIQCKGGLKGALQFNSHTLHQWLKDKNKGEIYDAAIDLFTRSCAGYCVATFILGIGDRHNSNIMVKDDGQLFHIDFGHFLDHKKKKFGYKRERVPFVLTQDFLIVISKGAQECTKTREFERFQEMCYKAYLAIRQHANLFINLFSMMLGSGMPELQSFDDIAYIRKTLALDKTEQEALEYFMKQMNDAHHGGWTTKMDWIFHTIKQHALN
T3 sequence (P27986 whole entry partner): as the sequence (P27986 whole entry partner) above
T2 sequence (O00329 whole entry): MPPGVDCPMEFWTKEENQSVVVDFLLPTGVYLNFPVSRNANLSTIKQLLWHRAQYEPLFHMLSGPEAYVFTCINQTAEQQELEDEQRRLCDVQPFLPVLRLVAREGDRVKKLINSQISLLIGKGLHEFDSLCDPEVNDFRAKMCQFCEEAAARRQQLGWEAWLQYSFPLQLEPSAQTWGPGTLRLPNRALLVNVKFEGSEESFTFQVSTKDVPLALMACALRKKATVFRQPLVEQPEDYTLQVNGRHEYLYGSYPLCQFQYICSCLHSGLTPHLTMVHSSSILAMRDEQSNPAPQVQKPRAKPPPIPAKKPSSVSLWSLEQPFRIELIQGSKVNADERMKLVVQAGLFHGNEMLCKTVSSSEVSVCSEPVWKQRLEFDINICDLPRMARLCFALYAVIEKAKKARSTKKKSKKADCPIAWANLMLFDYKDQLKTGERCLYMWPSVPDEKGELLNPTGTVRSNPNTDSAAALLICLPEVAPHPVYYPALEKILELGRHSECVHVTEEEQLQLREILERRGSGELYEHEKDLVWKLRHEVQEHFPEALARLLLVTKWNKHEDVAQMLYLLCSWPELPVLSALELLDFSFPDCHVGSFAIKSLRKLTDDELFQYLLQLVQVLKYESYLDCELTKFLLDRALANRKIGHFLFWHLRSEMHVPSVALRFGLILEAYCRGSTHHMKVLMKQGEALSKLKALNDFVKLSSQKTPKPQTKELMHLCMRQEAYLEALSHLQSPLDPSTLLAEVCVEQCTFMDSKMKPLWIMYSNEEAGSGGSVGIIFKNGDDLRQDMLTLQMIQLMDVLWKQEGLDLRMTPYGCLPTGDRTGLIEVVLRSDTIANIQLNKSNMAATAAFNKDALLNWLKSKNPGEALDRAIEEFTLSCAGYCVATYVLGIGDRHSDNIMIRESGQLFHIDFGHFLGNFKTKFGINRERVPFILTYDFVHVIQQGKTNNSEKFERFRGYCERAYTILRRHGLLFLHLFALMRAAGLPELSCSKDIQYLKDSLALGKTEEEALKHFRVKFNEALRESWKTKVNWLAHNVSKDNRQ
T2 sequence (P27986 whole entry partner): as the sequence (P27986 whole entry partner) above

SMILES	Ki (PI3K p110γ) [µM]	Ki (PI3K p110δ) [µM]	Ki (PI3K p110α) [µM]	Ki (PI3K p110β) [µM]
O=S1(=O)CCN(Cc2cnc3oc4c(N5CCOCC5)nc(-c5cccc6[nH]ccc56)nc4c3c2)CC1 [Example A, 4-{[4-(1H-Indol-4-yl)-6-(morpholin-4-yl)-8-oxa-3,5,10-triazatricyclo[7.4.0.0^2,7]trideca-1(13),2(7),3,5,9,11-hexaen-12-yl]methyl]-1λ^6-thiomorpholine-1,1-dione]	> 10	≤ 0.5	1 to 10	≤ 0.5
Cc1cc2c(-c3nc(N4CCOCC4)c4oc5ncc(CN6CC[S+]([O-])CC6)cc5c4n3)cccc2[nH]1 [Example AG, 4-{[4-(2-methyl-1H-indol-4-yl)-6-(morpholin-4-yl)-8-oxa-3,5,10-triazatricyclo[7.4.0.0^2^,7]trideca-1(13),2(7),3,5,9,11-hexaen-12-yl]methyl}-1λ^4-thiomorpholin-1-one]	1 to 10	≤ 0.5	0.5 to 1	≤ 0.5
[O-][S+]1CCN(Cc2cnc3oc4c(N5CCOCC5)nc(-c5cccc6[nH]ccc56)nc4c3c2)CC1 [Example AH, 4-{[4-(1H-indol-4-yl)-6-(morpholin-4-yl)-8-oxa-3,5,10-triazatricyclo[7.4.0.0^2^,7]trideca-1(13),2(7),3,5,9,11-hexaen-12-yl]methyl}-1λ^4-thiomorpholin-1-one]	> 10	≤ 0.5	1 to 10	≤ 0.5
COc1ccc2c(c1-c1nc(N3CCOCC3)c3oc4ncc(CN5CC[S+]([O-])CC5)cc4c3n1)CCN2 [Example AI, 4-{[4-(5-Methoxy-2,3-dihydro-1H-indol-4-yl)-6-(morpholin-4-yl)-8-oxa-3,5,10-triazatricyclo[7.4.0.0^2^,7]trideca-1(13),2(7),3,5,9,11-hexaen-12-yl]methyl}-1λ^4-thiomorpholin-1-one]	> 10	≤ 0.5	> 10	1 to 10
[O-][S+]1CCN(Cc2cnc3oc4c(N5CCOCC5)nc(-c5cccc6[nH]cc(F)c56)nc4c3c2)CC1 [Example AJ, 4-{[4-(3-fluoro-1H-indol-4-yl)-6-(morpholin-4-yl)-8-oxa-3,5,10-triazatricyclo[7.4.0.0^2^,7]trideca-1(13),2(7),3,5,9,11-hexaen-12-yl]methyl}-1λ^4-thiomorpholin-1-one]	> 10	≤ 0.5	> 10	1 to 10
[O-][S+]1CCN(Cc2cnc3sc4c(N5CCOCC5)nc(-c5cccc6[nH]ccc56)nc4c3c2)CC1 [Example AK, 4-{[4-(1H-Indol-4-yl)-6-(morpholin-4-yl)-8-thia-3,5,10-triazatricyclo[7.4.0.0^2^,7]trideca-1(9),2,4,6,10,12-hexaen-12-yl]methyl}-1λ^4-thiomorpholin-1-one]	> 10	1 to 10	> 10	1 to 10
Cc1c[nH]c2cccc(-c3nc(N4CCOCC4)c4oc5ncc(CN6CC[S+]([O-])CC6)cc5c4n3)c12 [Example AL, 4-{[4-(3-Methyl-1H-indol-4-yl)-6-(morpholin-4-yl)-8-oxa-3,5,10-triazatricyclo[7.4.0.0^2^,7]trideca-1(13),2(7),3,5,9,11-hexaen-12-yl]methyl}-1λ^4-thiomorpholin-1-one]	> 10	1 to 10	> 10	> 10
[O-][S+]1CCN(Cc2cnc3oc4c(N5CCOCC5)nc(-c5cc(Cl)cc6[nH]ccc56)nc4c3c2)CC1 [Example AM, 4-{[4-(6-Chloro-1H-indol-4-yl)-6-(morpholin-4-yl)-8-oxa-3,5,10-triazatricyclo[7.4.0.0^2^,7]trideca-1(13),2(7),3,5,9,11-hexaen-12-yl]methyl}-1λ^4-thiomorpholin-1-one]	> 10	1 to 10	> 10	> 10
N#Cc1c[nH]c2cccc(-c3nc(N4CCOCC4)c4oc5ncc(CN6CC[S+]([O-])CC6)cc5c4n3)c12 [Example AN, 4-[6-(morpholin-4-yl)-12-[(1-oxo-1λ^4-thiomorpholin-4-yl)methyl]-8-oxa-3,5,10-triazatricyclo[7.4.0.0^2,^7]trideca-1(13),2(7),3,5,9,11-hexaen-4-yl]-1H-indole-3-carbonitrile]	> 10	> 10	> 10	> 10
CN(CCS(C)(=O)=O)Cc1cnc2oc3c(N4CCOCC4)nc(-c4cccc5[nH]ccc45)nc3c2c1 [Example C, {[4-(1H-Indol-4-yl)-6-(morpholin-4-yl)-8-oxa-3,5,10-triazatricyclo[7.4.0.0^2,7]trideca-1(13),2(7),3,5,9,11-hexaen-12-yl]methyl}(2-methanesulfonylethyl)methylamine]	1 to 10	≤ 0.5	≤ 0.5	≤ 0.5
[O-][S+]1CCN(Cc2cnc3oc4c(N5CCOCC5)nc(-c5cc(F)cc6[nH]ccc56)nc4c3c2)CC1 [Example D]	> 10	≤ 0.5	> 10	≤ 0.5
[O-][S+]1CCN(Cc2cnc3oc4c(N5CCOCC5)nc(-c5c(F)ccc6[nH]ccc56)nc4c3c2)CC1 [Example E]	1 to 10	≤ 0.5	1 to 10	≤ 0.5
[O-][S+]1CCN(Cc2cnc3oc4c(N5CCOCC5)nc(-c5cc(C(F)(F)F)cc6[nH]ccc56)nc4c3c2)CC1 [Example F]	> 10	> 10	> 10	> 10
N=S1(=O)CCN(Cc2cnc3oc4c(N5CCOCC5)nc(-c5cccc6[nH]ccc56)nc4c3c2)CC1 [Example G]	1 to 10	≤ 0.5	0.5 to 1	≤ 0.5
C[C@H](c1cnc2oc3c(N4CCOCC4)nc(-c4cccc5[nH]ccc45)nc3c2c1)N1CCS(=O)(=O)CC1 [Example H, 4-[(1R)-1-[4-(1H-Indol-4-yl)-6-(morpholin-4-yl)-8-oxa-3,5,10-triazatricyclo[7.4.0.0^2,7]trideca-1(13),2,4,6,9,11-hexaen-12-yl]ethyl]-1λ^6-thiomorpholine-1,1-dione]	1 to 10	≤ 0.5	0.5 to 1	≤ 0.5
C[C@@H](c1cnc2oc3c(N4CCOCC4)nc(-c4cccc5[nH]ccc45)nc3c2c1)N1CCS(=O)(=O)CC1 [Example I, 4-[(1S)-1-[4-(1H-Indol-4-yl)-6-(morpholin-4-yl)-8-oxa-3,5,10-triazatricyclo[7.4.0.0^2,7]trideca-1(13),2,4,6,9,11-hexaen-12-yl]ethyl]-1λ^6-thiomorpholine-1,1-dione]	> 10	≤ 0.5	≤ 0.5	≤ 0.5
c1cc(-c2nc(N3CCOCC3)c3oc4ncc(CN5C[C@@H]6C[C@H]5CS6)cc4c3n2)c2cc[nH]c2c1 [Example J, 4-(1H-Indol-4-yl)-6-(morpholin-4-yl)-12-[(1 S,4S)-2-thia-5-azabicyclo[2.2.1]heptan-5-ylmethyl]-8-oxa-3,5,10-triazatricyclo[7.4.0.0^2,7]trideca-1(13),2,4,6,9,11-hexaene]	> 10	≤ 0.5	1 to 10	≤ 0.5
O=S1(=O)C[C@@H]2C[C@H]1CN2Cc1cnc2oc3c(N4CCOCC4)nc(-c4cccc5[nH]ccc45)nc3c2c1 [Example K, (1S,4S)-5-{[4-(1H-Indol-4-yl)-6-(morpholin-4-yl)-8-oxa-3,5,10-triazatricyclo[7.4.0.0^2,7]trideca-1(13),2,4,6,9,11-hexaen-12-yl]methyl}-2λ^6-thia-5-azabicyclo[2.2.1]heptane-2,2-dione]	> 10	≤ 0.5	1 to 10	≤ 0.5
[O-][S+]1CC2CC1CN2Cc1cnc2oc3c(N4CCOCC4)nc(-c4cccc5[nH]ccc45)nc3c2c1 [Example L, (1S,2R,4S)-5-{([4-(1H-Indol-4-yl)-6-(morpholin-4-yl)-8-oxa-3,5,10-triazatricyclo[7.4.0.0^2,7]trideca-1(13),2,4,6,9,11-hexaen-12-yl]methyl}-2-thia-5-azabicyclo[2.2.1]heptan-2-ium-2-olate]	1 to 10	≤ 0.5	0.5 to 1	≤ 0.5
O=C1Cc2c(cccc2-c2nc(N3CCOCC3)c3oc4ncc(CN5CC[S+]([O-])CC5)cc4c3n2)N1 [Example N, 4-[6-(morpholin-4-yl)-12-[(1-oxo-1λ^4-thiomorpholin-4-yl)methyl]-8-oxa-3,5,10-triazatricyclo[7.4.0.0^2,^7]trideca-1(13),2(7),3,5,9,11-hexaen-4-yl]-2,3-dihydro-1H-indol-2-one]	> 10	> 10	> 10	> 10
[O-][S+]1CCN(Cc2cnc3oc4c(N5CCOCC5)nc(-c5cccc6c5CCN6)nc4c3c2)CC1 [Example O, 4-{[4-(2,3-Dihydro-1H-indol-4-yl)-6-(morpholin-4-yl)-8-oxa-3,5,10-triazatricyclo[7.4.0.0^2,7]trideca-1(13),2(7),3,5,9,11-hexaen-12-yl]methyl}-1λ^4-thiomorpholin-1-one]	> 10	≤ 0.5	> 10	≤ 0.5
Cc1ccc2[nH]ccc2c1-c1nc(N2CCOCC2)c2oc3ncc(CN4CC[S+]([O-])CC4)cc3c2n1 [Example P, 4-{[4-(5-Methyl-1H-indol-4-yl)-6-(morpholin-4-yl)-8-oxa-3,5,10-triazatricyclo[7.4.0.0^2,7]trideca-1(9),2,4,6,10,12-hexaen-12-yl]methyl}-1λ^4-thiomorpholin-1-one]	1 to 10	≤ 0.5	1 to 10	≤ 0.5
[O-][S+]1CCN(Cc2cnc3oc4c(N5CCOCC5)nc(-c5ccc(F)c6[nH]ccc56)nc4c3c2)CC1 [Example Q, 4-{[4-(7-Fluoro-1H-indol-4-yl)-6-(morpholin-4-yl)-8-oxa-3,5,10-triazatricyclo[7.4.0.0^2,7]trideca-1(13),2(7),3,5,9,11-hexaen-12-yl]methyl}-1λ^4-thiomorpholin-1-one]	> 10	≤ 0.5	> 10	1 to 10
